The nature of the first series: recombinant barcode read abundance after kanamycin selection (control-corrected) (log10(CPM+1)); higher = more efficient recombination; sequences stand for … in AGTGCAGAGAAAATCGGCCAGTTTTCTCTGCCTGCAGTCCGCATGCCGT…ATTTATGCAGCGGACTGCCTTTCTCCCAAAGTGATAAACCGGACAGTATCATGGACCGGTTTTCCCGGTAATCCGTATTTGCAAGGTTGGTTTCACT; site = the 11-nt target. As to the method:
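Same pooled E. coli target screen (IS621 bridge recombinase, kanamycin selection, control-corrected CPM, mean of 2 biological replicates). Here the two core-binding nucleotides of the LTG and RTG of the bridge RNA target-binding loop are mutated. Target and donor CT cores are held constant, and the other 9 guide positions match the target. The target is read from the library oligo sequence. Molecule = full bridge RNA written as DNA: nt 1-80 from the library oligo, rest WT scaffold.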
In the case of “AAACACACATGGGTTCTAACCTGTTGCCTAG [AAACACACTAG_LTGcore_CA_RTGcore_CT] (site AAACACACTAG) (LTG core: CA, RTG core: CT)”, the “recombinant barcode read abundance (log10)” value came out at 0.327.

Take “AAACACACTTGGGTTCTAACCTGTTGCCTAA [AAACACACTAG_LTGcore_CT_RTGcore_TT] (site AAACACACTAG) (LTG core: CT, RTG core: TT)”: the “recombinant barcode read abundance (log10)” value was found to be 1.12.

A further series can be described thus: recombinant barcode read abundance after kanamycin selection (control-corrected) (log10(CPM+1)); higher = more efficient recombination; sequences stand for … in AGTGCAGAGAAAATCGGCCAGTTTTCTCTGCCTGCAGTCCGCATGCCGT…AGATTTATGCAGCGGACTGCCTTTCTCCCAAAGTGATAAACCGGACAGTATCATGGACCGGTTTTCCCGGTAATCCGTATTTGCAAGGTTGGTTTCACT; site = the 11-nt target. In outline: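 Recombination efficiency comes from barcode counts at recombinant junctions, converted to counts per million, averaged and corrected against the control. Values appear as log10(CPM+1). They were obtained from a pooled E. coli screen in which each oligo paired a target with an IS621 bridge RNA target-binding loop, and cells were plated in duplicate on chloramphenicol/ampicillin LB agar or on chloramphenicol/ampicillin/kanamycin with 0.1 mM IPTG.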
On to “TTAGTCGCTTGGGTTCTAACCTGTTGCCT (site TTAGTTGCTAG)”, for which the “recombinant barcode read abundance (log10)” value worked out at 0.0472.

On to “TTAGTTGCTTGGGTTCTAACCTGTTGCCT (site TTAGTAGCTAG)”, for which the “recombinant barcode read abundance (log10)” value amounted to 0.225.

As to “TTAGTTGCTTGGGTTCTAACCTGTTGCCT (site TTAGTCGCTAG)”, the “recombinant barcode read abundance (log10)” value stood at 0.0596.

Consider “TTAGTTGCTTGGGTTCTAACCTGTTGCCT (site TTAGTGGCTAG)”, for which the “recombinant barcode read abundance (log10)” value turned out to be 0.0286.

Regarding “TTAGTTGCTTGGGTTCTAACCTGTTGCCT (site TTAGTTGCTAG)”, the “recombinant barcode read abundance (log10)” value turned out to be 1.4.

Take “TTCAACTCTTGGGTTCTAACCTGTTGCGT (site TTCAACTCTAC)”: the “recombinant barcode read abundance (log10)” value was found to be 1.56.

On to “TTCAACTCTTGGGTTCTAACCTGTTGCGT (site TTCAAGTCTAC)”, for which the “recombinant barcode read abundance (log10)” value turned out to be 0.0543.

In the case of “TTCAAGCCTTGGGTTCTAACCTGTTGCGT (site TTCAAGCCTAC)”, the “recombinant barcode read abundance (log10)” value stood at 1.17.

On to “TTCAAGCCTTGGGTTCTAACCTGTTGCGT (site TTCAAGCCTCC)”, for which the “recombinant barcode read abundance (log10)” value turned out to be 0.0397.

“TTCAGCCCTTGGGTTCTAACCTGTTGCCT (site TACAGCCCTAG)”: the “recombinant barcode read abundance (log10)” value was 0.456.

On to “TTCAGCCCTTGGGTTCTAACCTGTTGCCT (site TTCAGCCCTAG)”, for which the “recombinant barcode read abundance (log10)” value was 0.679.

On to “TTCAGTCCTTGGGTTCTAACCTGTTGCAT (site TTAAGTCCTAG)”, for which the “recombinant barcode read abundance (log10)” value is 0.

On to “TTCAGTCCTTGGGTTCTAACCTGTTGCAT (site TTCAGTCCTAT)”, for which the “recombinant barcode read abundance (log10)” value is 0.509.

Turning to “TTCATGTCTTGGGTTCTAACCTGTTGCCT (site TTCACGTCTAG)”, the “recombinant barcode read abundance (log10)” value was determined as 0.0724.

As for “TTCATGTCTTGGGTTCTAACCTGTTGCCT (site TTCATGTCTAG)”, the “recombinant barcode read abundance (log10)” value was found to be 0.811.

As to “TTCCGTCCTTGGGTTCTAACCTGTTGCTT (site CGAGTGACTTG)”, the “recombinant barcode read abundance (log10)” value was 0.0499.

Turning to “TTCCGTCCTTGGGTTCTAACCTGTTGCTT (site TTCCGTCCTAA)”, the “recombinant barcode read abundance (log10)” value is 0.0911.

As for “TTCTATGCTTGGGTTCTAACCTGTTGCCT (site TCCTGTGCTAG)”, the “recombinant barcode read abundance (log10)” value stood at 0.24.

For “TTCTATGCTTGGGTTCTAACCTGTTGCCT (site TTCTATGCTAG)”, the “recombinant barcode read abundance (log10)” value stood at 0.187.

Regarding “TTCTTCCCTTGGGTTCTAACCTGTTGCCT (site TTCTTCCCTAG)”, the “recombinant barcode read abundance (log10)” value is 0.235.

As for “TTCTTCCCTTGGGTTCTAACCTGTTGCCT (site TTGTACCCTAG)”, the “recombinant barcode read abundance (log10)” value stood at 0.1.

In the case of “TTGAATGCTTGGGTTCTAACCTGTTGCCT (site TTGAATGCTAG)”, the “recombinant barcode read abundance (log10)” value was 1.15.

For “TTGAATGCTTGGGTTCTAACCTGTTGCCT (site TTGACTGCTAG)”, the “recombinant barcode read abundance (log10)” value is 0.0516.

In the case of “TTGAATGCTTGGGTTCTAACCTGTTGCCT (site TTGAGTGCTAG)”, the “recombinant barcode read abundance (log10)” value turned out to be 0.0419.

For “TTGAATGCTTGGGTTCTAACCTGTTGCCT (site TTGATTGCTAG)”, the “recombinant barcode read abundance (log10)” value was determined as 0.214.

In the case of “TTGAGGACTTGGGTTCTAACCTGTTGCGT (site TTGAGGACTAC)”, the “recombinant barcode read abundance (log10)” value turned out to be 2.22.

Turning to “TTGAGGACTTGGGTTCTAACCTGTTGCGT (site TTGAGGACTTG)”, the “recombinant barcode read abundance (log10)” value turned out to be 0.147.

“TTGATTACTTGGGTTCTAACCTGTTGCCA (site TTGAGTACTCG)”: the “recombinant barcode read abundance (log10)” value worked out at 0.0598.

Regarding “TTGATTACTTGGGTTCTAACCTGTTGCCA (site TTGATTACTTG)”, the “recombinant barcode read abundance (log10)” value worked out at 0.0149.

As for “TTGCCGACTTGGGTTCTAACCTGTTGCCA (site TTGACGACTTG)”, the “recombinant barcode read abundance (log10)” value is 0.608.

For “TTGCCGACTTGGGTTCTAACCTGTTGCCA (site TTGCCGACTTG)”, the “recombinant barcode read abundance (log10)” value was determined as 0.503.

As for “TTGCCGACTTGGGTTCTAACCTGTTGCCA (site TTGGCGACTTG)”, the “recombinant barcode read abundance (log10)” value amounted to 0.0806.

For “TTGCCGACTTGGGTTCTAACCTGTTGCCA (site TTGTCGACTTG)”, the “recombinant barcode read abundance (log10)” value came out at 0.116.

For the sequence “TTGCCTTCTTGGGTTCTAACCTGTTGCCT (site TAGCCTTCTAG)”, the “recombinant barcode read abundance (log10)” value was 0.106.

On to “TTGCCTTCTTGGGTTCTAACCTGTTGCCT (site TCGCCTTCTAG)”, for which the “recombinant barcode read abundance (log10)” value stood at 0.0687.

In the case of “TTGCCTTCTTGGGTTCTAACCTGTTGCCT (site TGGCCTTCTAG)”, the “recombinant barcode read abundance (log10)” value came to 0.606.

Take “TTGCCTTCTTGGGTTCTAACCTGTTGCCT (site TTGCCTTCTAG)”: the “recombinant barcode read abundance (log10)” value was 0.686.

In the case of “TTGGCAGCTTGGGTTCTAACCTGTTGCCT (site TTGGAAGCTAG)”, the “recombinant barcode read abundance (log10)” value stood at 0.061.

Take “TTGGCAGCTTGGGTTCTAACCTGTTGCCT (site TTGGCAGCTAG)”: the “recombinant barcode read abundance (log10)” value stood at 2.08.

Turning to “TTGGCAGCTTGGGTTCTAACCTGTTGCCT (site TTGGGAGCTAG)”, the “recombinant barcode read abundance (log10)” value was determined as 0.11.

With “TTGGCAGCTTGGGTTCTAACCTGTTGCCT (site TTGGTAGCTAG)”, the “recombinant barcode read abundance (log10)” value is 0.0352.

For the sequence “TTGGCCTCTTGGGTTCTAACCTGTTGCCT (site GTGGCGTCTAG)”, the “recombinant barcode read abundance (log10)” value stood at 0.15.

Regarding “TTGGCCTCTTGGGTTCTAACCTGTTGCCT (site TTGGCCTCTAG)”, the “recombinant barcode read abundance (log10)” value came to 1.27.

With “TTGGCGACTTGGGTTCTAACCTGTTGCCA (site TTGACGACTTG)”, the “recombinant barcode read abundance (log10)” value amounted to 0.221.

Consider “TTGGCGACTTGGGTTCTAACCTGTTGCCA (site TTGCCGACTTG)”, for which the “recombinant barcode read abundance (log10)” value was 0.0473.

In the case of “TTGGCGACTTGGGTTCTAACCTGTTGCCA (site TTGGCGACTTG)”, the “recombinant barcode read abundance (log10)” value was 0.118.

In the case of “TTGGCGACTTGGGTTCTAACCTGTTGCCA (site TTGTCGACTTG)”, the “recombinant barcode read abundance (log10)” value is 0.0276.

With “TTGGGAGCTTGGGTTCTAACCTGTTGCTG (site TTCGGAGCTCA)”, the “recombinant barcode read abundance (log10)” value stood at 0.426.

On to “TTGGGAGCTTGGGTTCTAACCTGTTGCTG (site TTGGGAGCTCA)”, for which the “recombinant barcode read abundance (log10)” value worked out at 2.92.

Regarding “TTGGTACCTTGGGTTCTAACCTGTTGCCT (site TTGGTACCTAG)”, the “recombinant barcode read abundance (log10)” value came to 2.41.

In the case of “TTGGTACCTTGGGTTCTAACCTGTTGCCT (site TTGGTCCCTAG)”, the “recombinant barcode read abundance (log10)” value turned out to be 0.204.

Turning to “TTGGTACCTTGGGTTCTAACCTGTTGCCT (site TTGGTGCCTAG)”, the “recombinant barcode read abundance (log10)” value is 0.138.

On to “TTGGTACCTTGGGTTCTAACCTGTTGCCT (site TTGGTTCCTAG)”, for which the “recombinant barcode read abundance (log10)” value was found to be 0.116.

Take “TTGGTAGCTTGGGTTCTAACCTGTTGCCT (site TTGGAAGCTAG)”: the “recombinant barcode read abundance (log10)” value is 0.255.

Turning to “TTGGTAGCTTGGGTTCTAACCTGTTGCCT (site TTGGCAGCTAG)”, the “recombinant barcode read abundance (log10)” value amounted to 0.148.

On to “TTGGTAGCTTGGGTTCTAACCTGTTGCCT (site TTGGGAGCTAG)”, for which the “recombinant barcode read abundance (log10)” value was 0.127.

Regarding “TTGGTAGCTTGGGTTCTAACCTGTTGCCT (site TTGGTAGCTAG)”, the “recombinant barcode read abundance (log10)” value is 1.63.

For “TTGGTGCCTTGGGTTCTAACCTGTTGCCT (site TTGGTACCTAG)”, the “recombinant barcode read abundance (log10)” value came out at 1.97.

For “TTGGTGCCTTGGGTTCTAACCTGTTGCCT (site TTGGTCCCTAG)”, the “recombinant barcode read abundance (log10)” value came to 0.0442.

For “TTGGTGCCTTGGGTTCTAACCTGTTGCCT (site TTGGTGCCTAG)”, the “recombinant barcode read abundance (log10)” value was 2.13.

In the case of “TTGGTGCCTTGGGTTCTAACCTGTTGCCT (site TTGGTTCCTAG)”, the “recombinant barcode read abundance (log10)” value was found to be 0.0399.

Take “TTGTACCCTTGGGTTCTAACCTGTTGCCT (site TTCTTCCCTAG)”: the “recombinant barcode read abundance (log10)” value is 0.

On to “TTGTACCCTTGGGTTCTAACCTGTTGCCT (site TTGTACCCTAG)”, for which the “recombinant barcode read abundance (log10)” value stood at 1.45.

“TTGTCGTCTTGGGTTCTAACCTGTTGCCT (site ATGTAGTCTAG)”: the “recombinant barcode read abundance (log10)” value came to 0.0378.

In the case of “TTGTCGTCTTGGGTTCTAACCTGTTGCCT (site TTGTCGTCTAG)”, the “recombinant barcode read abundance (log10)” value came out at 1.25.

On to “TTGTGAGCTTGGGTTCTAACCTGTTGCGC (site AGTCACACTCT)”, for which the “recombinant barcode read abundance (log10)” value turned out to be 0.182.

Regarding “TTGTGAGCTTGGGTTCTAACCTGTTGCGC (site TTGTGAGCTGC)”, the “recombinant barcode read abundance (log10)” value turned out to be 1.68.

The values are drawn from the supplement of paper PMC11208160.
